Test results taken from EP1897542A1, “Aqueous formulation comprising an antitumor agent” (Sanofi-Aventis, priority 2006, dated 2008).

How the values were obtained:
[1] = In vivo study in rats with phosphate buffer formulation, 1-hour infusion (Example 7); settings: 400 mg/kg dose, 0.1M phosphate buffer, single IV infusion over 1 hour, day of the infusion
Procedure: Dosages were 0 (control), 100, 200, and 400 mg/kg.

[2] = Preliminary animal toxicological studies, infusion of simple phosphate buffer formulation; format: in vivo; settings: infused at 10 mg/mL or greater as a simple phosphate buffer formulation
Excerpt: (2R)-2-[4-(7-Bromo-2-quinolyloxy)phenoxy]propanoic acid may be administered as a liquid parenteral formulation. […] Since significant hemolysis can cause anemia, the hemolytic effect of (2R)-2-[4-(7-bromo-2-quinolyloxy)phenoxy]propanoic acid is an undesirable property for a pharmaceutical composition.

[3] = In vivo study in dogs with phosphate buffer formulation, 30-minute infusion (Example 6); set-up: species or system beagle dog; settings: 0.1M phosphate buffer, single IV infusion over 30 minutes, 1 male and 1 female
Procedure: Dosages were 25 and 50 mg/kg. Sampling for plasma level determination was taken for 1 day at the following intervals: end of infusion (0), 30 minutes, 1 hour, 3 hours, 6 hours, and 24 hours after the end of the infusion.

dog erythrocytes [4] = test: In vitro hemolytic potential in dog erythrocytes for a formulation containing a cyclodextrin (Example 4); format: cell-based; settings: 10 mg/mL Active Ingredient in 0.05M pH 7 phosphate buffer with 10% (w/v) hydroxypropyl beta cyclodextrin, n=6 (mean), percentage of that induced by saponin, 30 min
Procedure: Saline (0.9% NaCl) was used as the negative control, and saponin (3% aqueous solution) was used as the positive control.
(§1) Dog whole blood was mixed in a 1:1 ratio and a 9:1 ratio with solutions of the active ingredient in the vehicle and with the vehicles alone. Dog whole blood was also mixed in a 1:1 ratio and a 9:1 ratio with a 3% saponin solution as the positive control and saline (0.9% NaCl) as the negative control.
(§2) After mixing, tubes were incubated for 30 minutes at 37°C, then centrifuged (3000 t/min.) for 10 minutes. Hemoglobin concentrate was dosed in the supernatant by spectrophotometry UV/visible (Genesis technologies) for the assessment of the in vitro hemolytic potential. The percent of hemolysis was calculated based on the results of the saponin samples.

[5] = In vitro hemolytic potential with dog erythrocytes, phosphate buffer vehicle (Example 1); format: cell-based; settings: dog, whole blood, n=5 (mean), percentage of that induced by saponin
Procedure: (§3) The following study was performed to evaluate the hemolytic potential of solutions of (2R)-2-[4-(7-bromo-2-quinolyloxy)phenoxy]propanoic acid in a 0.1 M pH 8 phosphate bufferred vehicle at concentrations of 10 mg/mL and 20 mg/mL. Saline (0.9% NaCl) was used as a negative control, and saponin (3% aqueous solution), which is a known inducer of hemolysis, was used as the positive control.
as §1, §2

dog erythrocytes [6] = test: as above; format: cell-based; settings: 10 and 20 mg/mL solutions in 0.1 M pH 8 phosphate buffer
Procedure: as §3, §1, §2

C[C@@H](Oc1ccc(Oc2ccc3ccc(Br)cc3n2)cc1)C(=O)O [Active Ingredient, (2R)-2-[4-(7-bromo-2-quinolyloxy)phenoxy]propanoic acid]
discolored urine (red/brown), animals affected ([1]; females): 8 out of 10 | discolored urine (red/brown), animals affected ([1]; males): 6 out of 10 | hemolysis [2]: cause a degree of hemolysis | visual hemolysis on plasma samples ([3]; 25 mg/kg, seen at time 0 and 30 minutes post infusion (all animals), 1 hour (male)): visual hemolysis was observed | visual hemolysis on plasma samples ([3]; 50 mg/kg, seen at time 0, 30 minutes, 1 hour, 3 hours (both animals) and 6 hours (female)): visual hemolysis was observed | Percentage of Hemolysis (dog erythrocytes [4]; Blood/Solution ratio 1:1): 1.8% | Percentage of Hemolysis (dog erythrocytes [4]; Blood/Solution ratio 9:1): 0.5% | hemolysis at 0.5 h ([5]; pH 8, 10 mg/mL Active Ingredient in 0.1 M pH 8 phosphate buffer, Blood/Solution ratio 1:1): 24% | hemolysis at 0.5 h ([5]; pH 8, 10 mg/mL Active Ingredient in 0.1 M pH 8 phosphate buffer, Blood/Solution ratio 9:1): 4.5% | hemolysis at 0.5 h ([5]; pH 8, 20 mg/mL Active Ingredient in 0.1 M pH 8 phosphate buffer, Blood/Solution ratio 1:1): 28% | hemolysis at 0.5 h ([5]; pH 8, 20 mg/mL Active Ingredient in 0.1 M pH 8 phosphate buffer, Blood/Solution ratio 9:1): 6.6% | hemolysis of dog erythrocytes (result in words) (dog erythrocytes [6]): induced hemolysis
